Literature values in paper PMC3185201 (Molecular pharmaceutics, 2011).

Test system: NEP 24.11
Conditions: prior study

- Protection from the degradation by NEP 24.11: outstanding protection
Structure (SMILES): CC[C@H](C)[C@H](NC(=O)[C@H](Cc1ccccc1)NC(=O)[C@H](CCC(=O)O)NC(=O)[C@H](CCCCN)NC(=O)[C@H](C)NC(=O)[C@H](C)NC(=O)[C@H](CCC(N)=O)NC(=O)[C@@H]1CCCCNC(=O)CC[C@H](NC(=O)[C@H](CO)NC(=O)[C@@H](NC(=O)[C@H](CC(=O)O)NC(=O)[C@H](CO)NC(=O)[C@@H](NC(=O)[C@H](Cc2ccccc2)NC(=O)[C@@H](NC(=O)CNC(=O)[C@H](CCC(=O)O)NC(=O)C(C)(C)NC(=O)[C@@H](N)Cc2c[nH]cn2)[C@@H](C)O)[C@@H](C)O)C(C)C)C(=O)N[C@@H](Cc2ccc(O)cc2)C(=O)N[C@@H](CC(C)C)C(=O)N[C@@H](CCC(=O)O)C(=O)N1)C(=O)N[C@H]1CCC(=O)NCCCC[C@@H](C(=O)NCC(=O)N[C@@H](CCCNC(=N)N)C(=O)NCCCCCC(=O)N[C@@H](CS)C(N)=O)NC(=O)[C@H](C(C)C)NC(=O)[C@H](CC(C)C)NC(=O)[C@H](Cc2c[nH]c3ccccc23)NC1=O [EM3106B]
